Test results published in paper PMC10726481, “New Teixobactin Analogues with a Total Lactam Ring” (ACS Medicinal Chemistry Letters, 2023).
≈ marks a conversion by molar mass, not a printed value. Bridge positions count the residues as written; N and C are the ends. Square brackets hold non-standard residues; d marks the D form. Peptide text beside a SMILES is read from it. d(aIle) = CC[C@H](C)[C@@H](N)C(=O)O; dNMeF = CN[C@H](Cc1ccccc1)C(=O)O; Nle = CCCC[C@H](N)C(=O)O; dDap = NC[C@@H](N)C(=O)O

Tests used:
[1] = system: C. glabrata ATCC 15126; assay: microbe, parasite or virus in culture; type: cell-based; settings: for MIC C. glabrata ATCC 15126: ATCC 15126, 24 h
Method: (§1) . The minimum inhibitory concentrations (MICs) of synthesized compounds were assessed according to the broth microdilution method using 96-well plates, in reference to the protocol of the Clinical and Laboratory Standards Institute (CLSI).[32],[33] In assays, reference strains of the bacteria S. aureus ATCC 25923, S. epidermidis ATCC 14990, and E. coli ATCC 25922 and the fungus C. glabrata ATCC 15126 were used, all from The Polish Collection of Microorganism, Polish Academy of Sciences, Wrocław, Poland. Bacteria at initial inoculums of 0.5 × 10^5 CFU/mL in Mueller–Hinton Broth (MHB), and fungus at initial inoculums of 2 × 10^3 CFU/mL in RPMI-1640, were exposed to the serial dilution of compounds. Tested concentrations were in the range 1–512 μg/mL. 96-well plates with microorganisms and tested substances were incubated at 37 °C for 18 h for bacteria and for 24 h for C. glabrata. The MIC values were taken as the lowest concentrations at which visible growth of microorganisms was inhibited. The minimum inhibitory concentrations (MICs) for MRSA ATCC 33591 were tested at the University of Liverpool. Bacterial cultures were grown overnight in Mueller–Hinton Agar (MHA) plates and adjusted to a final concentration of 10^5–10^6 CFU/mL. 100 μL of inoculum in Meuller–Hinton broth (MHB) was mixed with an equal volume of peptides (dissolved in MHB) at 2× their concentration in a 96-well plate. […] The final peptide concentrations ranged from 0.0625–32 μg/mL (the lower range 0.031–16 μg/mL was used). Positive and negative controls contained 200 μL of inoculum without any peptide dissolved in broth, respectively. The 96-well plates were then incubated at 37 °C for 24 h. All the experiments were performed in two independent duplicates, and the MIC was determined as the lowest concentration in which no visible growth was observed.

[2] = system: S. aureus ATCC 25923; type: cell-based; settings: ATCC 25923, 18 h
Method: (§2) . The minimum inhibitory concentrations (MICs) of synthesized compounds were assessed according to the broth microdilution method using 96-well plates, in reference to the protocol of the Clinical and Laboratory Standards Institute (CLSI).[32],[33] In assays, reference strains of the bacteria S. aureus ATCC 25923, S. epidermidis ATCC 14990, and E. coli ATCC 25922 and the fungus C. glabrata ATCC 15126 were used, all from The Polish Collection of Microorganism, Polish Academy of Sciences, Wrocław, Poland. Bacteria at initial inoculums of 0.5 × 10^5 CFU/mL in Mueller–Hinton Broth (MHB), and fungus at initial inoculums of 2 × 10^3 CFU/mL in RPMI-1640, were exposed to the serial dilution of compounds. Tested concentrations were in the range 1–512 μg/mL. 96-well plates with microorganisms and tested substances were incubated at 37 °C for 18 h for bacteria and for 24 h for C. glabrata. The MIC values were taken as the lowest concentrations at which visible growth of microorganisms was inhibited. The minimum inhibitory concentrations (MICs) for MRSA ATCC 33591 were tested at the University of Liverpool. Bacterial cultures were grown overnight in Mueller–Hinton Agar (MHA) plates and adjusted to a final concentration of 10^5–10^6 CFU/mL. 100 μL of inoculum in Meuller–Hinton broth (MHB) was mixed with an equal volume of peptides (dissolved in MHB) at 2× their concentration in a 96-well plate. […] Positive and negative controls contained 200 μL of inoculum without any peptide dissolved in broth, respectively. The 96-well plates were then incubated at 37 °C for 24 h. All the experiments were performed in two independent duplicates, and the MIC was determined as the lowest concentration in which no visible growth was observed.

[3] = system: S. epidermidis ATCC 14990; type: cell-based; settings: ATCC 14990, 18 h
Method: as §2

[4] = system: E. coli ATCC 25922; assay: microbe, parasite or virus in culture; type: cell-based; settings: for MIC E. coli ATCC 25922: ATCC 25922, 18 h
Method: as §1

[5] = system: MRSA ATCC 33591; type: cell-based, methicillin-resistant S. aureus; settings: ATCC 33591, 24 h
Method: . The minimum inhibitory concentrations (MICs) of synthesized compounds were assessed according to the broth microdilution method using 96-well plates, in reference to the protocol of the Clinical and Laboratory Standards Institute (CLSI).[32],[33] In assays, reference strains of the bacteria S. aureus ATCC 25923, S. epidermidis ATCC 14990, and E. coli ATCC 25922 and the fungus C. glabrata ATCC 15126 were used, all from The Polish Collection of Microorganism, Polish Academy of Sciences, Wrocław, Poland. Bacteria at initial inoculums of 0.5 × 10^5 CFU/mL in Mueller–Hinton Broth (MHB), and fungus at initial inoculums of 2 × 10^3 CFU/mL in RPMI-1640, were exposed to the serial dilution of compounds. Tested concentrations were in the range 1–512 μg/mL. 96-well plates with microorganisms and tested substances were incubated at 37 °C for 18 h for bacteria and for 24 h for C. glabrata. The MIC values were taken as the lowest concentrations at which visible growth of microorganisms was inhibited. The minimum inhibitory concentrations (MICs) for MRSA ATCC 33591 were tested at the University of Liverpool. Bacterial cultures were grown overnight in Mueller–Hinton Agar (MHA) plates and adjusted to a final concentration of 10^5–10^6 CFU/mL. […] All the experiments were performed in two independent duplicates, and the MIC was determined as the lowest concentration in which no visible growth was observed.

[6] = system: MRSA; settings: compared with the 4 μg/mL of the analogues; strain not given, context MRSA; cited from earlier work
Method: To determine the antimicrobial activity of these analogues, the MIC test using the microdilution method was chosen. Analogues were tested on three different types of bacteria: Gram-positive S. aureus and S. epidermidis, Gram-negative E. coli and fungus C. glabrata (Table 1) including the MRSA ATCC 33591.

Compound | MIC ([1]; Nakaseomyces glabratus, ATCC15126, CLSI broth microdilution, 96-well plates, RPMI-1640, inoculum 2 × 10^3 CFU/mL, 37 °C for 24 h, tested 1–512 μg/mL, visible growth) [µg/mL] | MIC S. aureus ATCC 25923 [2] [µg/mL] | MIC S. epidermidis ATCC 14990 [3] [µg/mL] | MIC C. glabrata ATCC 15126 [1] [µg/mL] | MIC E. coli ATCC 25922 [4] [µg/mL] | MIC MRSA ATCC 33591 [5] [µg/mL] | MIC ([4]; Escherichia coli, ATCC25922, 18 h, read-out: MIC E. coli ATCC 25922) [µg/mL] | potency (MIC) of natural teixobactin [6] [µg/mL]
CC(=O)N1CCN(c2ccc(OCC3COC(Cn4ccnc4)(c4ccc(Cl)cc4Cl)O3)cc2)CC1 (stereo not drawn) [Ketoconazole, ketoconazole, reference compound] | 0.62 (≈ 1.17 µM) |  |  |  |  |  |  | 
CC[C@H](C)[C@@H]1NC(=O)[C@H](CCCNC(=N)N)NC(=O)[C@H](C)NC(=O)[C@H](NC(=O)[C@H](CO)NC(=O)[C@@H](NC(=O)[C@H](NC(=O)[C@@H](CCC(N)=O)NC(=O)[C@H](CO)NC(=O)[C@@H](NC(=O)[C@@H](Cc2ccccc2)NC)[C@@H](C)CC)[C@@H](C)CC)[C@@H](C)CC)CNC1=O [TXGS-1, D-Dap8,Arg10-teixobactin, reference compound] |  | 32 (≈ 26 µM) | 256 (≈ 208 µM) | >512 | >512 |  |  | 
CC[C@H](C)[C@H](NC(=O)[C@H](N)Cc1ccccc1)C(=O)N[C@@H](CO)C(=O)N[C@H](CCC(N)=O)C(=O)N[C@@H](C(=O)N[C@H](C(=O)N[C@@H](CO)C(=O)N[C@@H]1CNC(=O)[C@H]([C@@H](C)CC)NC(=O)[C@H](CCCNC(=N)N)NC(=O)[C@H](C)NC1=O)[C@@H](C)CC)[C@@H](C)CC [TXGS-2] |  | 32 (≈ 26.3 µM) | 128 (≈ 105 µM) | >512 | >512 |  |  | 
CCCC[C@@H]1NC(=O)[C@H](CCCNC(=N)N)NC(=O)[C@H](C)NC(=O)[C@H](NC(=O)[C@H](CO)NC(=O)[C@@H](NC(=O)[C@H](NC(=O)[C@@H](CCC(N)=O)NC(=O)[C@H](CO)NC(=O)[C@@H](NC(=O)[C@@H](Cc2ccccc2)NC)[C@@H](C)CC)[C@@H](C)CC)[C@@H](C)CC)CNC1=O [TXGS-3] |  | 4 (≈ 3.25 µM) | 64 (≈ 52.1 µM) | >512 | >512 | 4 (≈ 3.25 µM) |  | 
CC[C@H](C)[C@@H]1NC(=O)[C@H](CCCNC(=N)N)NC(=O)[C@H](C)NC(=O)[C@H](NC(=O)[C@H](CO)NC(=O)[C@@H](NC(=O)[C@H](NC(=O)[C@@H](CCCNC(=N)N)NC(=O)[C@H](CO)NC(=O)[C@@H](NC(=O)[C@@H](Cc2ccccc2)NC)[C@@H](C)CC)[C@@H](C)CC)[C@@H](C)CC)CNC1=O [TXGS-5] (H-[dNMeF]IS[dR][d(aIle)]IS[dDap]ARI; lactam 8-C) |  | 256 (≈ 204 µM) | 256 (≈ 204 µM) | 512 (≈ 407 µM) | 256 (≈ 204 µM) |  |  | 
CC[C@H](C)[C@H](NC(=O)[C@H](N)Cc1ccccc1)C(=O)N[C@@H](CO)C(=O)N[C@H](CCCNC(=N)N)C(=O)N[C@@H](C(=O)N[C@H](C(=O)N[C@@H](CO)C(=O)N[C@@H]1CNC(=O)[C@H]([C@@H](C)CC)NC(=O)[C@H](CCCNC(=N)N)NC(=O)[C@H](C)NC1=O)[C@@H](C)CC)[C@@H](C)CC [TXGS-6] |  | 64 (≈ 51.5 µM) | 64 (≈ 51.5 µM) | >512 | >512 |  |  | 
CCCC[C@@H]1NC(=O)[C@H](CCCNC(=N)N)NC(=O)[C@H](C)NC(=O)[C@H](NC(=O)[C@H](CO)NC(=O)[C@@H](NC(=O)[C@H](NC(=O)[C@@H](CCCNC(=N)N)NC(=O)[C@H](CO)NC(=O)[C@@H](NC(=O)[C@@H](Cc2ccccc2)NC)[C@@H](C)CC)[C@@H](C)CC)[C@@H](C)CC)CNC1=O [TXGS-7] (H-[dNMeF]IS[dR][d(aIle)]IS[dDap]AR[Nle]; lactam 8-C) |  | 4 (≈ 3.18 µM) | 8 (≈ 6.36 µM) | 64 (≈ 50.9 µM) | 32 (≈ 25.4 µM) | 4 (≈ 3.18 µM) |  | 
CCCC[C@@H]1NC(=O)[C@H](CCCNC(=N)N)NC(=O)[C@H](C)NC(=O)[C@H](NC(=O)[C@H](CO)NC(=O)[C@@H](NC(=O)[C@H](NC(=O)[C@@H](CCCNC(=N)N)NC(=O)[C@H](CO)NC(=O)[C@@H](NC(=O)[C@H](N)Cc2ccccc2)[C@@H](C)CC)[C@@H](C)CC)[C@@H](C)CC)CNC1=O [TXGS-8] (H-[dF]IS[dR][d(aIle)]IS[dDap]AR[Nle]; lactam 8-C) |  | 8 (≈ 6.43 µM) | 8 (≈ 6.43 µM) | 128 (≈ 103 µM) | 64 (≈ 51.5 µM) |  |  | 
CN[C@H](CC(C)C)C(=O)N[C@H]1C(=O)N[C@@H](CC(N)=O)C(=O)N[C@H]2C(=O)N[C@H]3C(=O)N[C@H](C(=O)N[C@H](C(=O)O)c4cc(O)cc(O)c4-c4cc3ccc4O)[C@H](O)c3ccc(c(Cl)c3)Oc3cc2cc(c3O[C@@H]2O[C@H](CO)[C@@H](O)[C@H](O)[C@H]2O[C@H]2C[C@](C)(N)[C@H](O)[C@H](C)O2)Oc2ccc(cc2Cl)[C@H]1O [Vancomicin, vancomycin, reference compound] |  |  |  |  |  |  | > 64 | 
teixobactin |  |  |  |  |  |  |  | 0.25
